Source: patent US8450318B2 (priority 2007, dated 2013)
pEC50: −log10 of the molar value. Converted amounts (≈) assume the structure as drawn. Where two headings read alike, the source gives them in different places.

How the values were obtained:
CEM cells = test: Cytostatic/cytotoxic activity, inhibition of CEM cell proliferation; settings: Table 1; 50% cytostatic concentration, CEM cell proliferation
HIV-2 = test: Antiretrovirus assay, HIV-2
Influenza A H3N2 subtype = test: Anti-influenza activity in MDCK cells, Influenza A H3N2; format: cell-based; settings: for EC50 Influenza A H3N2 subtype MTS: cell viability, formazan-based MTS assay; for EC50 Influenza A H3N2 subtype visual CPE score: visual scoring of the CPE; for pEC50: reference compounds
Description: (§1) MDCK cells (Madin Darby canine kidney cells) have been used for the experiments shown in table 5 using standard procedures known in the art.

Influenza A H1N1 subtype = test: Anti-influenza activity in MDCK cells, Influenza A H1N1; format: cell-based; settings: for EC50 Influenza A H1N1 subtype MTS: cell viability, formazan-based MTS assay; for EC50 Influenza A H1N1 subtype visual CPE score: visual scoring of the CPE; for pEC50: reference compounds
Description: as §1

CRFK cells [1] = settings: cytotoxicity, feline corona virus test
Feline Corona virus = test: Activity on feline corona virus in CRFK cells; format: cell-based
Influenza B = test: Anti-influenza activity in MDCK cells, Influenza B; format: cell-based; settings: for EC50 Influenza B MTS: cell viability, formazan-based MTS assay; for EC50 Influenza B visual CPE score: visual scoring of the CPE; for pEC50: reference compounds
[2] = system: human corona (SARS) virus; test: microbe, parasite or virus in culture; format: cell-based; settings: human corona (SARS) virus
CRFK cells [3] = settings: cytotoxicity, human corona virus test
[4] = system: Herpes simplex virus-1 (KOS); test: Antiviral activity, Herpes simplex virus-1 (KOS); format: cell-based; settings: Human alphaherpesvirus 1; Table 4, reference compounds
Vaccinia virus = test: microbe, parasite or virus in culture; format: cell-based; settings: Orthopoxvirus vaccinia, read-out: EC50 Vaccinia virus
[5] = system: Herpes simplex virus-1 TK KOS-ACV^r; test: Antiviral activity, Herpes simplex virus-1 TK KOS-ACVr; format: cell-based; settings: Human alphaherpesvirus 1, read-out: EC50 Herpes simplex virus-1 TK KOS-ACV^r
[6] = system: Vesicular stomatitis virus; test: microbe, parasite or virus in culture; format: cell-based; settings: read-out: EC50 Vesicular stomatitis virus
[7] = system: Herpes simples virus-2 (G); test: Antiviral activity, Herpes simplex virus-2 (G); format: cell-based; settings: Human alphaherpesvirus 2; Table 4, reference compounds
[8] = Table 1, CEM cells, prevention of syncytium formation by 50%, 4 to 5 days
[9] = MTS, read-out: EC50 Influenza A H3N2 subtype MTS
[10] = visual CPE, read-out: EC50 Influenza A H3N2 subtype visual CPE score
[11] = MTS, read-out: EC50 Influenza A H1N1 subtype MTS
[12] = visual CPE, read-out: EC50 Influenza A H1N1 subtype visual CPE score
[13] = MTS, read-out: EC50 Influenza B MTS
[14] = visual CPE, read-out: EC50 Influenza B visual CPE score

## CCc1c(CNc2cccc(C(C)=NO)c2)c(CC)c(CNc2cccc(C(C)=NO)c2)c(CC)c1CNc1cccc(C(C)=NO)c1 [Compound 28]
HIV-1; [8]
  EC50 HIV-1: >4 µg/mL
CEM cells
  CC50: 10.0 ± 0.98 µg/mL (≈ 15.4 µM)
HIV-2; Table 1
  EC50 HIV-2: >4 µg/mL

## Cc1ccc2ccc(NC(=O)c3cccc(C(=O)Nc4ccc5ccc(C)nc5n4)c3)nc2n1 [Sc74]
Influenza A H3N2 subtype
  EC50 Influenza A H3N2 subtype MTS: 12.5 µg/mL (≈ 27.9 µM)
  EC50 Influenza A H3N2 subtype visual CPE score: 14.5 ± 7.8 µg/mL (≈ 32.3 µM)
Influenza A H1N1 subtype
  EC50 Influenza A H1N1 subtype MTS: 9.6 µg/mL (≈ 21.4 µM)
  EC50 Influenza A H1N1 subtype visual CPE score: 15.1 ± 7.0 µg/mL (≈ 33.7 µM)
CRFK cells [1]
  Feline Corona virus CC50: >100 µg/mL
Feline Corona virus
  Feline Corona virus EC50: 29.0 ± 4.8 µg/mL
Influenza B
  EC50 Influenza B MTS: 9.9 µg/mL (≈ 22.1 µM)
  EC50 Influenza B visual CPE score: 10.9 ± 1.1 µg/mL (≈ 24.3 µM)

## CCc1c(CN)c(CC)c(CNc2cc(C)cc(C)n2)c(CC)c1CNc1cc(C)cc(C)n1 [Compound 29]
HIV-1; [8]
  EC50 HIV-1: >0.16 µg/mL
Influenza A H3N2 subtype
  EC50 Influenza A H3N2 subtype MTS: >0.8 µg/mL
  EC50 Influenza A H3N2 subtype visual CPE score: >0.8 µg/mL
CEM cells
  CC50: 1.69 ± 0.02 µg/mL (≈ 3.68 µM)
Influenza A H1N1 subtype
  EC50 Influenza A H1N1 subtype MTS: >0.8 µg/mL
  EC50 Influenza A H1N1 subtype visual CPE score: >0.8 µg/mL
HIV-2; Table 1
  EC50 HIV-2: >0.8 µg/mL
Influenza B
  EC50 Influenza B MTS: >0.8 µg/mL
  EC50 Influenza B visual CPE score: >0.8 µg/mL

## CCc1c(CNc2cc(C)cc(C)n2)c(CC)c(CNc2ccc3ccc(C)nc3n2)c(CC)c1CNc1cc(C)cc(C)n1 [Co50]
HIV-1; Table 1a
  EC50 HIV-1: >2 µg/mL
HIV-2; Table 1a
  EC50 HIV-2: >2 µg/mL

## CCc1c(CNCC2COCCOCCOCCOCCO2)c(CC)c(CNc2cc(C)cc(C)n2)c(CC)c1CNc1cc(C)cc(C)n1 (centres unmarked) [Co12]
HIV-1; Table 1a
  EC50 HIV-1: 1.35 ± 0.29 µg/mL (≈ 1.95 µM)
[2]
  Human Corona virus EC50: 1.9 ± 0.6 µg/mL
HIV-2; Table 1a
  EC50 HIV-2: >4 µg/mL
CRFK cells [1]
  Feline Corona virus CC50: 11 ± 0 µg/mL
Feline Corona virus
  Feline Corona virus EC50: 1.4 ± 0.2 µg/mL
CRFK cells [3]
  Human Corona virus CC50: 13 ± 1.2 µg/mL

## Cc1cc(C)c2ccc(NC(=O)c3cc(C(=O)Nc4ccc5c(C)cc(C)nc5n4)cc(C(=O)Nc4ccc5c(C)cc(C)nc5n4)c3)nc2n1 [Sc75]
Influenza A H3N2 subtype
  EC50 Influenza A H3N2 subtype MTS: >4 µg/mL
  EC50 Influenza A H3N2 subtype visual CPE score: >4 µg/mL
Influenza A H1N1 subtype
  EC50 Influenza A H1N1 subtype MTS: >4 µg/mL
  EC50 Influenza A H1N1 subtype visual CPE score: >4 µg/mL
Influenza B
  EC50 Influenza B MTS: >4 µg/mL
  EC50 Influenza B visual CPE score: >4 µg/mL

## CCc1c(CN)c(CC)c(CNc2cc(C)cc(C)n2)c(CC)c1CNc1cc(C)cc(C)n1.Cl [Co28]
Influenza A H3N2 subtype
  EC50 Influenza A H3N2 subtype MTS: >0.8 µg/mL
  EC50 Influenza A H3N2 subtype visual CPE score: >0.8 µg/mL
Influenza A H1N1 subtype
  EC50 Influenza A H1N1 subtype MTS: >0.8 µg/mL
  EC50 Influenza A H1N1 subtype visual CPE score: >0.8 µg/mL
Influenza B
  EC50 Influenza B MTS: >0.8 µg/mL
  EC50 Influenza B visual CPE score: >0.8 µg/mL

## Nc1nc(O)c2ncn(COC(CO)CO)c2n1 [Ganciclovir]
[4]
  pEC50: 8.19
Vaccinia virus
  pEC50: 4.00
[5]
  pEC50: 4.92
[6]
  pEC50: < 3.82
[7]
  pEC50: 7.49

## CCC(CC)O[C@@H]1C=C(C(=O)O)C[C@H](N)[C@H]1NC(C)=O [Oseltamivir caboxylate, reference compound]
Influenza A H3N2 subtype; [9]
  pEC50: 5.80
Influenza A H3N2 subtype; [10]
  pEC50: 5.74
Influenza A H1N1 subtype; [11]
  pEC50: 8.52
Influenza A H1N1 subtype; [12]
  pEC50: 8.40
Influenza B; [13]
  pEC50: 5.59
Influenza B; [14]
  pEC50: 5.40

## NC12CC3CC(CC(C3)C1)C2 [Amantadin, reference compound]
Influenza A H3N2 subtype; [9]
  pEC50: 5.80
Influenza A H3N2 subtype; [10]
  pEC50: 5.40
Influenza A H1N1 subtype; [11]
  pEC50: 4.23
Influenza A H1N1 subtype; [12]
  pEC50: 4.23
Influenza B; [13]
  pEC50: < 4.00
Influenza B; [14]
  pEC50: < 4.00

## CCc1c(CNc2cccc(C)n2)c(CC)c(CNc2cccc(NC(=O)Cc3ccccc3)n2)c(CC)c1CNc1cccc(C)n1 [AH30]
Influenza A H3N2 subtype
  EC50 Influenza A H3N2 subtype MTS: >4 µg/mL
  EC50 Influenza A H3N2 subtype visual CPE score: >4 µg/mL
Influenza A H1N1 subtype
  EC50 Influenza A H1N1 subtype MTS: >4 µg/mL
  EC50 Influenza A H1N1 subtype visual CPE score: >4 µg/mL
Influenza B
  EC50 Influenza B MTS: >4 µg/mL
  EC50 Influenza B visual CPE score: >4 µg/mL

## Nc1nc2c(ncn2COCCO)c(=O)[nH]1 [Acyclovir]
[4]
  pEC50: 6.40
Vaccinia virus
  pEC50: < 3.60
[5]
  pEC50: 3.82
[6]
  pEC50: < 3.60
[7]
  pEC50: 7.10
